For one data set, the system named is OVA/alum-sensitized mice. Put plainly: Asthma studies: ovalbumin sensitization, bronchial lavage, FACS. The format is in vivo, mice (BALE/c line). As for the experimental part: An immune response to ovalbumin was provoked by administering ovalbumin together with aluminium hydroxide. The immune response can be tracked with the help of the T helper cells population (CD4+) which has migrated into the bronchial lining and the eosinophilic granulocytes which have migrated in.
Female mice (BALE/c line) were sensitized by intraperitoneal (i.p.) administration of 50 μg ovalbumin (OVA) dissolved in phosphate buffer (PBS) plus 100 μL aluminium hydroxide (alum) with a total volume of 200 μL per mouse on day 0.100 μg OVA in PBS (50 μL total volume) in each case was then administered intranasally to the OVA/alum-sensitized mice under mild anaesthesia (isoflurane) on days 7 to 10. From these animals groups were formed which additionally received on days 7, 9, and 11 either 250 μg Cs-103 in PBS (i.p.), PBS only (diluent) or no further addition (−). On day 12 all the animals were killed by CO2 exposure and cells of the bronchial tract were obtained by bronchial lavage (BAL) by means of a cannula introduced into the trachea washing three times each with 1 ml cold PBS. The obtained cells of the BAL were then double dyed (a) with Cy-Chrome-conjugated anti-mouse CD4-antibodies and (b) with FITC-conjugated anti-mouse CD62L-antibodies. The cells were then analyzed by means of FACS. Effector/Memory […] T cells were distinguished as CD4^+/CD62L^− lymphocytes and eosinophilic cells with the help of their scattered light properties (FSC/SSC).

Data set [1] in a line: Toxicity test: leukocyte count in blood and spleen. In kind it is in vivo, mice. To be noted: three doses of 250 μg on 1st, 3rd and 5th day, cell count on 6th day; FIGS. 4 and 5. Here is the method:
FIG. 4 the number of leukocytes in the blood before and after administering three doses (1st, 3rd and 5th day) of 250 μg Cs-103 to each animal (determination on the 6th day); and
FIG. 5 the number of leukocytes in the spleen before and after administering three doses (1st, 3rd and 5th day) of 250 μg Cs-103 to each animal (determination on the 6th day).
As the leukocyte count in blood and spleen increases in the case of inflammatory diseases, the number of these cells was used as toxicity marker. As FIGS. 4 and 5 show, the selected compound Cs-103 (after administering three doses of 250 μg Cs-103, on the 1st, 3rd and 5th day, and cell count determination on the 6th day) is harmless in this assay.

For data set [2] the following is noted: blood cells vs plasma; cited from earlier work.

Molecules are shown by their SMILES.

With `CC[C@@H]1NC(=O)[C@H]([C@H](O)[C@H](C)CCN(CCC(=O)N[C@H](CCC(=O)O)C(=O)N[C@H](CCC(=O)O)C(=O)N[C@H](CCC(=O)O)C(=O)N[C@H](CCC(=O)O)C(=O)N[C@H](CCC(=O)O)C(=O)N[C@H](CCC(=O)O)C(=O)NCC(=O)O)C(C)=O)N(C)C(=O)[C@H](C(C)C)N(C)C(=O)[C@H](CC(C)C)N(C)C(=O)[C@H](CC(C)C)N(C)C(=O)[C@@H](C)NC(=O)[C@H](C)NC(=O)[C@H](CC(C)C)N(C)C(=O)[C@H](C(C)C)NC(=O)[C@H](CC(C)C)N(C)C(=O)CN(C)C1=O` [Cs-103], in the data set on OVA/alum-sensitized mice (250 μg Cs-103, FIG. 3), the “number of eosinophilic granulocytes in the lung lavage fluid” value is on record as “very significantly reduced”. Also, the “number of eosinophilic granulocytes which migrated through ovalbumin sensitization into the bronchial lining” value in the data set with OVA/alum-sensitized mice (250 μg Cs-103, control: OVA-sensitized animals, FIG. 2) is reported as “very significantly reduced”. Besides, the “number of CD4-positive T cells which migrated through ovalbumin sensitization into the bronchial lining” value with OVA/alum-sensitized mice (250 μg Cs-103 i.p. on days 7, 9, 11, control: OVA-sensitized animals, FIG. 1) is on record as “very significantly reduced”. In addition, in data set [1], the “leukocyte count in blood and spleen as toxicity marker” value is on record as “harmless”.
As for `C/C=C/C[C@@H](C)[C@@H](O)[C@H]1C(=O)N[C@@H](CC)C(=O)N(C)CC(=O)N(C)[C@@H](CC(C)C)C(=O)N[C@@H](C(C)C)C(=O)N(C)[C@@H](CC(C)C)C(=O)N[C@@H](C)C(=O)N[C@H](COCCO)C(=O)N(C)[C@@H](CC(C)C)C(=O)N(C)[C@@H](CC(C)C)C(=O)N(C)[C@@H](C(C)C)C(=O)N1C` [SDZ IMM 125], the “concentration in blood cells relative to surrounding plasma” value in data set [2] is on record as “approximately 8 ×”.

Values taken from patent US8618065B2 (Max-Planck-Gesellschaft zur Foerderung der Wissenschaften …, priority 2009, dated 2013).
